For this assay, the target named is T1, Estrogen Receptor (ERα) in MCF-7 human ductal carcinoma breast cell line (Homo sapiens, UniProt P03372).
T1 construct: endogenous in cells; host or cells: MCF-7
T1 sequence (P03372 1-595): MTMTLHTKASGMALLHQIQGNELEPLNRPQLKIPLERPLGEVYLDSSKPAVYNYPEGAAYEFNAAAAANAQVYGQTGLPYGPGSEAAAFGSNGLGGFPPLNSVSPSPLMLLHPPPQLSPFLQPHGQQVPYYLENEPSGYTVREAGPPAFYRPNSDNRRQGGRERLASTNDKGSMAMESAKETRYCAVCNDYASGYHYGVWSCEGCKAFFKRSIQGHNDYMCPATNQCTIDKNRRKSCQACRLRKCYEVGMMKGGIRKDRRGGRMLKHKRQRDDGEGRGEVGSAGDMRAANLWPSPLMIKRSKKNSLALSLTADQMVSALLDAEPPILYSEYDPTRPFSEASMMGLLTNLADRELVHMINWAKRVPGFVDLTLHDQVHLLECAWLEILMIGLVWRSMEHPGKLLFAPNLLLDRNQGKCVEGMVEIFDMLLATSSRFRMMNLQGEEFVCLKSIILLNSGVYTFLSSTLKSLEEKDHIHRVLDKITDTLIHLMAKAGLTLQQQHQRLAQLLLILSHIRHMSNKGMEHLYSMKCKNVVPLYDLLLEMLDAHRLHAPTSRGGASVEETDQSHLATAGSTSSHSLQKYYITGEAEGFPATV
The assay can be described thus: MCF-7 ER degradation assay (cell based immuno-fluorescence). To be noted: MCF-7 cells; for ER degradation ≥ 90% at 0.3 μM: ER degradation by fulvestrant at 0.3 μM is defined as 100%; for DC50: 18-22 hours incubation, 50% reduction of ERα expression, single experiment or average of two or more, read-out: MCF-7 ER degradation IC50. In short, it runs like this:
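MCF-7 human ductal carcinoma breast cells were seeded at 3.75×10^4 cells per mL (40 μL per well) in 384 well plates with phenol red free DMEM containing 2 mM L-Glutamine and 5% (v/v) Charcoal/Dextran treated foetal calf serum. After overnight culture, compounds were acoustically dispensed, incubated 18-22 hours, then cells were formaldehyde-fixed and immunostained for ERα.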

SMILES strings stand for the structures.

For the molecule `Cc1ncsc1-c1ccc(CNC(=O)[C@@H]2C[C@@H](O)CN2C(=O)[C@@H](NC(=O)CCCCNC(=O)/C=C/c2cc(F)c([C@@H]3c4[nH]c5ccccc5c4C[C@@H](C)N3CC(C)(C)F)c(F)c2)C(C)(C)C)cc1` [Example 60, (2S,4R)-1-((S)-2-(5-((E)-3-(3,5-difluoro-4-((1R,3R)-2-(2-fluoro-2-methylpropyl)-3-methyl-2,3,4,9-tetrahydro-1H-pyrido[3,4-b]indol-1-yl)phenyl)acrylamido)pentanamido)-3,3-dimethylbutanoyl)-4-hydroxy-N-(4-(4-methylthiazol-5-yl)benzyl)pyrrolidine-2-carboxamide, Trifluoroacetic Acid], the “ER degradation ≥ 90% at 0.3 μM” value is “•” and the DC50 is 0.5 nM.
`Cc1ncsc1-c1ccc(CNC(=O)[C@@H]2C[C@@H](O)CN2C(=O)[C@@H](NC(=O)Cc2ccc(OCCOCCNC(=O)/C=C/c3cc(F)c([C@@H]4c5[nH]c6ccccc6c5C[C@@H](C)N4CC(C)(C)F)c(F)c3)cc2)C(C)(C)C)cc1` [Example 66, (2S,4R)-1-((S)-2-(2-(4-(2-(2-((E)-3-(3,5-difluoro-4-((1R,3R)-2-(2-fluoro-2-methylpropyl)-3-methyl-2,3,4,9-tetrahydro-1H-pyrido[3,4-b]indol-1-yl)phenyl)acrylamido)ethoxy)ethoxy)phenyl)acetamido)-3,3-dimethylbutanoyl)-4-hydroxy-N-(4-(4-methylthiazol-5-yl)benzyl)pyrrolidine-2-carboxamide, Trifluoroacetic Acid]: the “ER degradation ≥ 90% at 0.3 μM” value is reported as “•” and the DC50 amounted to 2.2 nM.
For `Cc1ncsc1-c1ccc(CNC(=O)[C@@H]2C[C@@H](O)CN2C(=O)[C@@H](NC(=O)COCCOCCOCCOCC(=O)Nc2ccc([C@@H]3c4[nH]c5ccccc5c4C[C@@H](C)N3CC(C)(C)F)cc2)C(C)(C)C)cc1` [Example 55, N^1-(4-((1R,3R)-2-(2-fluoro-2-methylpropyl)-3-methyl-2,3,4,9-tetrahydro-1H-pyrido[3,4-b]indol-1-yl)phenyl)-N^14—((S)-1-((2S,4R)-4-hydroxy-2-((4-(4-methylthiazol-5-yl)benzyl)carbamoyl)pyrrolidin-1-yl)-3,3-dimethyl-1-oxobutan-2-yl)-3,6,9,12-tetraoxatetradecanediamide, Trifluoroacetic Acid] the same measures were “•” and 1.2 nM.
As for `Cc1ncsc1-c1ccc(CNC(=O)[C@@H]2C[C@@H](O)CN2C(=O)[C@@H](NC(=O)COCCOCCOCCNC(=O)c2cc(F)c([C@@H]3c4[nH]c5ccccc5c4C[C@@H](C)N3CC(C)(C)F)c(F)c2)C(C)(C)C)cc1` [Example 91, (2S,4R)-1-((S)-15-(tert-Butyl)-1-(3,5-difluoro-4-((1R,3R)-2-(2-fluoro-2-methylpropyl)-3-methyl-2,3,4,9-tetrahydro-1H-pyrido[3,4-b]indol-1-yl)phenyl)-1,13-dioxo-5,8,11-trioxa-2,14-diazahexadecan-16-oyl)-4-hydroxy-N-(4-(4-methylthiazol-5-yl)benzyl)pyrrolidine-2-carboxamide], the “ER degradation ≥ 90% at 0.3 μM” value is given as “••” and the DC50 was 0.3 nM.
Turning to `Cc1ncsc1-c1ccc(CNC(=O)[C@@H]2C[C@@H](O)CN2C(=O)[C@@H](NC(=O)COc2ccc(OCCNC(=O)/C=C/c3cc(F)c([C@@H]4c5[nH]c6ccccc6c5C[C@@H](C)N4CC(C)(C)F)c(F)c3)cc2)C(C)(C)C)cc1` [Example 61, (2S,4R)-1-((S)-2-(2-(4-(2-((E)-3-(3,5-difluoro-4-((1R,3R)-2-(2-fluoro-2-methylpropyl)-3-methyl-2,3,4,9-tetrahydro-1H-pyrido[3,4-b]indol-1-yl)phenyl)acrylamido)ethoxy)phenoxy)acetamido)-3,3-dimethylbutanoyl)-4-hydroxy-N-(4-(4-methylthiazol-5-yl)benzyl)pyrrolidine-2-carboxamide, Trifluoroacetic Acid], the “ER degradation ≥ 90% at 0.3 μM” value is recorded as “••” and the DC50 was found to be 0.7 nM.
For `Cc1ncsc1-c1ccc(CNC(=O)[C@@H]2C[C@@H](O)CN2C(=O)[C@@H](NC(=O)COCc2ccc(COc3cc(F)c([C@@H]4c5[nH]c6ccccc6c5C[C@@H](C)N4CC(C)(C)F)c(F)c3)nc2)C(C)(C)C)cc1` [Example 85, (2S,4R)-1-((S)-2-(2-((6-((3,5-difluoro-4-((1R,3R)-2-(2-fluoro-2-methylpropyl)-3-methyl-2,3,4,9-tetrahydro-1H-pyrido[3,4-b]indol-1-yl)phenoxy)methyl)pyridin-3-yl)methoxy)acetamido)-3,3-dimethylbutanoyl)-4-hydroxy-N-(4-(4-methylthiazol-5-yl)benzyl)pyrrolidine-2-carboxamide] the same measures were “••” and 0.6 nM.
For the molecule `Cc1ncsc1-c1ccc(CNC(=O)[C@@H]2C[C@@H](O)CN2C(=O)[C@@H](NC(=O)COCCOCCOCCCCNC(=O)c2cc(F)c([C@@H]3c4[nH]c5ccccc5c4C[C@@H](C)N3CC(C)(C)F)c(F)c2)C(C)(C)C)cc1` [Example 83, (2S,4R)-1-((S)-17-(tert-Butyl)-1-(3,5-difluoro-4-((1R,3R)-2-(2-fluoro-2-methylpropyl)-3-methyl-2,3,4,9-tetrahydro-1H-pyrido[3,4-b]indol-1-yl)phenyl)-1,15-dioxo-7,10,13-trioxa-2,16-diazaoctadecan-18-oyl)-4-hydroxy-N-(4-(4-methylthiazol-5-yl)benzyl)pyrrolidine-2-carboxamide], the “ER degradation ≥ 90% at 0.3 μM” value is on record as “••” and the DC50 stood at 0.6 nM.
On to `Cc1ncsc1-c1ccc(CNC(=O)[C@@H]2C[C@@H](O)CN2C(=O)[C@@H](NC(=O)c2cnn(CCOCCNC(=O)/C=C/c3cc(F)c([C@@H]4c5[nH]c6ccccc6c5C[C@@H](C)N4CC(C)(C)F)c(F)c3)c2)C(C)(C)C)cc1` [Example 64, 1-(2-(2-((E)-3-(3,5-difluoro-4-((1R,3R)-2-(2-fluoro-2-methylpropyl)-3-methyl-2,3,4,9-tetrahydro-1H-pyrido[3,4-b]indol-1-yl)phenyl)acrylamido)ethoxy)ethyl)-N—((S)-1-((2S,4R)-4-hydroxy-2-((4-(4-methylthiazol-5-yl)benzyl)carbamoyl)pyrrolidin-5-yl)-3,3-dimethyl-1-oxobutan-2-yl)-1H-pyrazole-4-carboxamide, Trifluoroacetic Acid], for which the “ER degradation ≥ 90% at 0.3 μM” value was “•” and the DC50 was determined as 0.5 nM.
With `Cc1ncsc1-c1ccc(CNC(=O)[C@@H]2C[C@@H](O)CN2C(=O)[C@@H](NC(=O)COCCOCCOCCOc2cc(F)c([C@@H]3c4[nH]c5ccccc5c4C[C@@H](C)N3CC3(F)CC3)c(F)c2)C(C)(C)C)cc1` [Example 77, (2S,4R)-1-((S)-2-(tert-Butyl)-14-(3,5-difluoro-4-((1R,3R)-2-((1-fluorocyclopropyl)methyl)-3-methyl-2,3,4,9-tetrahydro-1H-pyrido[3,4-b]indol-1-yl)phenoxy)-4-oxo-6,9,12-trioxa-3-azatetradecanoyl)-4-hydroxy-N-(4-(4-methylthiazol-5-yl)benzyl)pyrrolidine-2-carboxamide], the “ER degradation ≥ 90% at 0.3 μM” value is listed as “••” and the DC50 was found to be 1 nM.
`Cc1ncsc1-c1ccc(CNC(=O)[C@@H]2C[C@@H](O)CN2C(=O)[C@@H](NC(=O)COCCCCCOc2cc(F)c([C@@H]3c4[nH]c5ccccc5c4C[C@@H](C)N3CC(F)(F)F)c(F)c2)C(C)(C)C)cc1` [Example 96]: the “ER degradation ≥ 90% at 0.3 μM” value is listed as “•” and the DC50 was found to be 1.3 nM.

Values taken from patent publication US10519152B2, “Compounds and their use in treating cancer” (AstraZeneca AB, priority 2017, dated 2019).
